Reference: patent US11185521B2, “Substituted aromatic compounds and pharmaceutical compositions for the prevention and treatment of osteoporosis” (Liminal BioSciences Inc., priority 2014, dated 2021)
“Also recorded” adds a separate entry of the source. Blank lines part the entries; values can stand above or below the compound they belong to.

Key:
RAW264.7 cells [1] = assay: IL-12 production in LPS-stimulated RAW264.7 cells (IL-12 ELISA); type: cell-based, murine; conditions: 100 ng/mL LPS, 21 hours
Protocol: RAW264.7 cells were cultured with 100 ng/mL of LPS in presence or absence of compounds for 21 hours in a humidified atmosphere of 95% air-5% carbon dioxide at 37° C. IL-12 concentration in the culture medium was measured using the IL-12 ELISA according to the manufacturer (BD Biosciences) recommendations. […] An in vitro IL-12 production assay was used for screening potential inhibitors of osteoclastogenesis.

RAW264.7 cells [2] = assay: LPS-induced osteoclastogenesis in RAW264.7 cells, TRAP staining; type: cell-based, murine; conditions: RAW264.7 cells differentiated with LPS (1 ug/ml), days 3-5 (FIG. 1)
Excerpt: RAW264.7 cells are precursors of osteoclasts and can be differentiated by several factors including Receptor activator of NF-κB ligand (RANKL) or Lipopolysaccharide (LPS). Osteoclasts are characterized by high expression or tartrate resistant acid phosphatase (TRACP) and Matrix Metalloproteinase-9 (MMP-9) which can be used as markers for osteoclasts. […] The effect of selected compounds on TRAP (osteoclast marker) and IL-12 was undertaken in RAW264.7 cells, a murine osteoclast precursor cell line, in comparison with capric acid, as a positive control for reduction of osteoclastogenesis (Park et al. (2011) PLOS One Volume 6, Issue 11, 8 pages). RAW264.7 cells were differentiated by the incubation with LPS (1 ug/ml) in presence or not of capric acid or Compound I. On days 3-5, osteoclast formation was evaluated using tartrate-resistant acid phosphatase (TRAP) staining.

[3] = system: ovariectomized (OVX) rats; assay: Ovariectomized (OVX) rat model of osteoporosis; type: in vivo, Sprague Dawley rats
Excerpt: Although in comparison to humans, the skeletal mass of rats remains stable for a protracted period during their lifespan, rats can be ovariectomized to make them sex-hormone deficient, and to stimulate the accelerated loss of bone that occurs in women following menopause. Ovariectomy induces bone loss in the rat and postmenopausal bone loss share many similar characteristics. These include: increased rate of bone turnover with resorption exceeding formation; an initial rapid phase of bone loss followed by a much slower phase; greater loss of cancellous than cortical bone; decreased intestinal absorption of calcium; some protection against bone loss by obesity; and similar skeletal response to therapy with estrogen, tamoxifen, bisphosphonates, parathyroid hormone, calcitonin and exercise. These wide-ranging similarities are strong evidence that the ovariectomized rat bone loss model is suitable for studying problems that are relevant to postmenopausal bone loss. Sprague Dawley rats (250 g) were ovariectomized (OVX) at day 0. Rats were treated by oral gavage with Compound I (200 mg/kg) from day 14 to day 68. Evaluation of different parameters (body weight, calcium loss, osteoclast markers (RANKL and TRAP mRNA expression), collagen content and histology) was performed at day 68.

db/db mice = assay: Serum adiponectin level in uninephrectomized diabetic obese (db/db) mice; type: in vivo; conditions: uninephrectomized db/db mice treated for 113 days (FIG. 9)
Protocol: To determine if selected compounds of this invention can affect serum adiponectin level, a model of diabetes type II/obesity was used. Briefly, db/db mice (6 weeks-old were uninephrectomized and treated with Compound XIV for 113 days (structure is shown in Table 1 hereinbefore). Serum adiponectin levels were determined with a mouse adiponectin enzyme-linked immunosorbant assay kit (R&D Systems).

RAW264.7 cells [4] = conditions: cited from earlier work

Structure (SMILES): CCCCCc1cccc(C(F)C(=O)[O-])c1.[Na+] (racemic) [Compound XIII, Sodium Salt of (RS)-2-Fluoro-2-(3-pentylphenyl)acetic Acid]
IL12 (RAW264.7 cells [1]; compound concentration 0.25 mM): 17.6 pg/mL

Structure (SMILES): CCCCCc1cccc(CC(=O)[O-])c1.[Na+] [Compound I, Sodium Salt of (3-pentylphenyl)acetic Acid]
IL12 (RAW264.7 cells [1]; compound concentration 0.50 mM): 54.34 pg/mL | IL-12 production (in words) (RAW264.7 cells [1]; various concentrations (FIG. 2, Table 2)): strong induction of IL-12 production | osteoclast formation, TRAP staining (RAW264.7 cells [2]): no TRAP cells are observable | body weight / ovariectomized-induced obesity ([3]; oral gavage 200 mg/kg day 14 to day 68 (FIG. 3)): reduced ovariectomized-induced obesity | calcium loss in urine ([3]; oral gavage 200 mg/kg, day 28 to day 56 (FIG. 4)): reduced significantly the calcium loss | acid phosphatase activity in serum ([3]; oral gavage 200 mg/kg, day 28 to day 56 (FIG. 5)): reduces the acid phosphatase activity | ratio of mRNA expression of RANKL/OPG in rat tibia ([3]; oral gavage 200 mg/kg, day 68 (FIG. 6)): decreased | collagen content in the metaphyse of the femur ([3]; oral gavage 200 mg/kg, day 68 (FIG. 7)): increased the collagen content | bone loss in the metaphysis of the femur, histology ([3]; oral gavage 200 mg/kg, day 68 (FIG. 8)): reduced bone loss

Structure (SMILES): CCCCCc1cccc(CCC(=O)[O-])c1.[Na+] [Compound II, Sodium Salt of 3-(3-pentylphenyl)propionic Acid]
IL12 (RAW264.7 cells [1]; compound concentration 0.50 mM): 350.65 pg/mL

Structure (SMILES): CCCCc1cccc(CCC(=O)[O-])c1.[Na+] [Compound III, Sodium Salt of 3-(3-butylphenyl)propionic Acid]
IL12 (RAW264.7 cells [1]; compound concentration 0.50 mM): 62.28 pg/mL

Structure (SMILES): CCC/C=C/c1cccc(CC(=O)[O-])c1.[Na+] [Compound IV, Sodium Salt of E-(3-pent-1-enyl-phenyl)acetic Acid]
IL12 (RAW264.7 cells [1]; compound concentration 0.50 mM): 19.31 pg/mL

Structure (SMILES): CCCCCc1cccc(CC(=O)[O-])c1O.[Na+] [Compound IX, Sodium Salt of 2-(2-Hydroxy-3-pentylphenyl)acetic Acid]
IL12 (RAW264.7 cells [1]; compound concentration 0.1 mM): 12.57 pg/mL

Structure (SMILES): CCCC/C=C/c1cccc(CC(=O)[O-])c1.[Na+] [Compound V, Sodium Salt of 2-(3-(Hex-1-enyl]phenyl)acetic Acid]
IL12 (RAW264.7 cells [1]; compound concentration 0.50 mM): 52.5 pg/mL

Structure (SMILES): CCCCCCc1cccc(CC(=O)[O-])c1.[Na+] [Compound VI, Sodium Salt of 2-(3-Hexylphenyl)acetic Acid]
IL12 (RAW264.7 cells [1]; compound concentration 0.25 mM): 58.87 pg/mL

Structure (SMILES): CCCCCc1cc(O)cc(CC(=O)[O-])c1.[Na+] [Compound VII, Sodium Salt of 3-hydroxy-5-pentylphenylacetic Acid]
IL12 (RAW264.7 cells [1]; compound concentration 0.50 mM): 16.6 pg/mL

Structure (SMILES): CCCCCc1cc(CC(=O)[O-])ccc1O.[Na+] [Compound VIII, Sodium Salt of 2-(4-Hydroxy-3-pentylphenyl)acetic Acid]
IL12 (RAW264.7 cells [1]; compound concentration 0.50 mM): 20 pg/mL

Structure (SMILES): CCCCCc1cc(F)cc(CC(=O)[O-])c1.[Na+] [Compound X, Sodium Salt of 2-(3-fluoro-5-pentylphenyl)acetic Acid]
IL12 (RAW264.7 cells [1]; compound concentration 0.50 mM): 80 pg/mL

Structure (SMILES): CCCCCc1cccc(CC(=O)[O-])c1F.[Na+] [Compound XI, Sodium Salt of 2-(2-Fluoro-3-pentylphenyl)acetic Acid]
IL12 (RAW264.7 cells [1]; compound concentration 0.25 mM): 15 pg/mL

Structure (SMILES): CCCCCc1cc(CC(=O)[O-])ccc1F.[Na+] [Compound XII, Sodium Salt of 2-(4-Fluoro-3-pentylphenyl)acetic Acid]
IL12 (RAW264.7 cells [1]; compound concentration 0.50 mM): 419.6 pg/mL

melting point: 225 to 230 °C
Structure (SMILES): CCCCCc1cc(CCCCC)cc(CC(=O)[O-])c1.[Na+] [Compound XIV, Sodium 2-[3,5-Dipentylphenyl] Acetate]
serum adiponectin level (db/db mice): increased the level of adiponectin to the level of the sham animals

Structure (SMILES): CCCCCc1cc(CCCCC)c(O)c(CC(=O)[O-])c1.[Na+] [Compound XVI, Sodium Salt of 2-(2-Hydroxy-3,5-dipentylphenyl)acetic Acid]
IL12 (RAW264.7 cells [1]; compound concentration 0.005 mM): 15 pg/mL

Structure (SMILES): CCCCCc1cc(CCCCC)cc(CCC(=O)[O-])c1.[Na+] [Compound XXIV, Sodium 3-[3,5-Dipentylphenyl]propanoate]
IL12 (RAW264.7 cells [1]; compound concentration 0.0025 mM): 79.9 pg/mL

Structure (SMILES): CCCCCCCCCC(=O)O [capric acid]
IL-12 production (RAW264.7 cells [4]; literature (Wang et al. 2006)): increase in IL-12 production; also recorded: increases the production of IL-12 | phosphatase (TRAP)-positive cells (RAW264.7 cells [4]; literature (Wang et al. 2006)): reduction of phosphatase (TRAP)-positive cells | LPS-upregulated iNOS mRNA levels and nitric oxide (NO) production (RAW264.7 cells [4]; literature): inhibited them | monocyte chemoattractant protein-1 (MCP-1) mRNA expression (RAW264.7 cells [4]; literature): inhibited monocyte chemoattractant protein-1 (MCP-1) mRNA expression | osteoclast formation, TRAP staining (RAW264.7 cells [2]): no TRAP cells are observable
